Measurements as given in a melting point compilation (Tetko et al.; mined from patent text by program, amines drawn as free bases though some values may be those of a salt).

Row | SMILES | melting point [°C]
1 | Cc1ccc(OC2SCC(O)C(O)C2O)c(-c2ccoc2)n1 (centres undefined) | 162
2 | COc1cc(=O)[nH]c2cc(O)ccc2c1=O | 273 to 275
3 | OC1CSC(Oc2ccccc2-c2ccno2)C(O)C1O (centres undefined) | 200
4 | COc1cccc(C#CC#Cc2cc(C(F)(F)F)ccc2C(F)(F)F)c1 | 37
5 | COC(=O)C(O)c1ccc2c(c1)OCO2 (centres undefined) | 93 to 95
6 | C#CC1(OC(C)=O)CCC2C3CCC4=CC(=O)CCC4C3C(C(F)F)CC21C (centres undefined) | 157 to 180
7 | Nc1nc(N)c(-c2cccc(Cl)c2Cl)c(CO)n1 | 173 to 176
8 | O=c1cc(O)c2cccc([N+](=O)[O-])c2o1 | 242 to 245
9 | N#CCc1c(C(N)=O)ncn1C1CCCCO1 (centres undefined) | 198 to 199
10 | COc1c(C)c(C)c(OC)c(C(O)(c2ccc(F)cc2)C(C)C)c1C (centres undefined) | 129 to 130
11 | CCC1CC2C3CCC(C(C)CC(C)C(=O)O)C3(C)CCC2C2(C)CCC(O)CC12 (centres undefined) | 138
12 | O=C(CC1CCCCCC1=O)c1ccc(Br)cc1 (centres undefined) | 124 to 127
13 | COc1ccc2c(c1OC)CCCC(C(=O)O)=C2 | 208 to 209
14 | CCOC(=O)C1=C(C)Nc2nc(N3CCOCC3)nc(N3CCOCC3)c2C1c1cccs1 (centres undefined) | 205
15 | CC(C)(C)C(OCc1ccc(Cl)cc1)c1cncnc1 (centres undefined) | 77 to 78.5
16 | Cn1cc(C(=O)O)c(=O)c2c3ccc(F)c(N4CCC(O)(c5cccc(C(F)(F)F)c5)CC4)c3ncc21 | 245
17 | CC(=O)Nc1cc(C(F)(F)F)ccc1N1CCOCC1 | 85
18 | O=C1N=NC(c2nc(Cl)c(Cl)[nH]2)=N1 | 176 to 178
19 | CC(=O)CCSc1cc(C(C)(C)C)c(O)c(C(C)(C)C)c1 | 79 to 81
20 | COc1nc(C)nc(NC(=O)NS(=O)(=O)c2cccc3c2nnn3C)n1 | 134 to 136

Row | SMILES | melting point [°C]
21 | CCOC(=O)c1c2ccc(CC(=O)NOCCO)ccc-2c(C(=O)OCC)c1N | 190 to 192
22 | Clc1cc(Cl)c(Oc2c(Cl)ncnc2Cl)c(Cl)c1 | 104 to 105
23 | COC(=O)C1=C(N)CCC1 | 95 to 96
24 | COc1ccc2c(c1OCC#N)CCCC2 | 50 to 51
25 | CCN1CC(Cc2ccc(C(=O)O)cc2OC)c2cc(NC(=O)CC3CCCC3)ccc21 (centres undefined) | 183 to 186
26 | CCOC(=O)c1nnc(Cc2c(F)cccc2F)n1C | 127 to 128
27 | O=C(Nc1ccccc1)ONC1=Nc2ccc(Cl)cc2C(c2ccccc2F)=NC1 | 126 to 128
28 | O=C(O)c1c[nH]c2cc(C3CC3)nn2c1=O | 275 to 278
29 | CCOC(=O)CN1C(=O)C(NC(=O)Nc2ccc(Cl)cc2)N=C(c2ccccc2)c2ccccc21 (centres undefined) | 228 to 229
30 | COc1ccc2c(c1)C[C@@H](C(N)=O)CC2 | 159 to 161
31 | CCOC(=O)C(CC(=O)c1cccc(Cl)c1)(NC(C)=O)C(=O)OCC | 84 to 86
32 | COc1ccc(C(=O)Nc2c(C)c(C)c3c(c2C)C(c2ccc(C)cc2)C(C)(C)O3)cc1OC (centres undefined) | 169 to 171
33 | O=C(NCCCSc1cccnc1)c1cccs1 | 66 to 67
34 | COC(=O)c1cc(OC(F)F)cnc1C1=NC(C)(C(C)C)C(=O)N1 (centres undefined) | 104 to 105
35 | O=C1CN2CCOC2(c2ccccc2Cl)c2cc([N+](=O)[O-])ccc2N1 (centres undefined) | 201 to 203
36 | Cc1ncsc1C(O)c1ccoc1 (centres undefined) | 44 to 46
37 | N#CCC(=C(C#N)C#N)c1ccccc1 | 92 to 98
38 | CCOC(=O)C(CCC(C)(C)c1cc(O)c(C(C)(C)CCC(C(=O)OCC)C(=O)OCC)cc1O)C(=O)OCC | 157 to 160
39 | NC(=O)c1ccc(F)c2c1C[C@@H](N(CCCc1c[nH]c3c(F)cc(F)cc13)CC1CC1)CO2 | 147 to 151
40 | CC(C)(C)OC(=O)NCCCCC(=O)Nc1cc(C(=O)O)ccc1Cl | 203

Row | SMILES | melting point [°C]
41 | CCCCCCNP(N)(N)=S | 65 to 70
42 | Cc1ccc(S(=O)(=O)NOC(C)C)cc1 | 104
43 | COCc1nc2cc3c(cc2[nH]1)NC(=O)C3(C)C | 203 to 205
44 | C=CCn1c(C)nc(N2CCc3ccccc3CC2)c(C#N)c1=O | 141 to 144
45 | COc1cc(NC(C)=O)c(Cl)cc1C(=O)NN1CCN(Cc2cccs2)CC1 | 178 to 181
46 | CC(=CC(=O)O)c1cccc(-c2cc3c(cc2C)C(C)(C)CCC3(C)C)c1 | 89 to 90
47 | ON=C1CCC(c2ccccc2)CC1 (centres undefined) | 110 to 112
48 | COc1cccc2c1nc(C(F)F)n2-c1nc(NC2CCN(C(=O)OC(C)(C)C)CC2)c(N)c(N2CCOCC2)n1 | 223 to 225
49 | CNS(=O)(=O)CC(=O)c1cc(OC)ccc1N | 117 to 118
50 | NC(=O)Nc1ccc(OCCn2ccnc2)cc1 | 199 to 201
51 | COc1ccc(N2CCN(c3ccc([N+](=O)[O-])cc3)CC2)nc1 | 160
52 | CC(=O)C(=CN(C)C)c1ccccc1 | 66
53 | CCN(CC)Cc1cc(C(N)=O)ccc1N | 129 to 131
54 | O=C1CCc2c(Cl)cc(Cl)c(I)c21 | 170 to 172
55 | CC(=CC#N)Cn1sc2ccccc2c1=O | 128 to 130
56 | COC(=S)C(C)=CNc1ccc(OC)c(Cl)c1 | 110 to 112
57 | CCOC(=O)CC(NCCCN(C)C)C(=O)O (centres undefined) | 168 to 169
58 | COC(=O)c1ccc(-c2cc(-c3ccc4c(c3)C(C)(C)CCC4(C)C)[nH]n2)cc1 | 155 to 156

Second part, the molecule after the results:

Row | melting point [°C] | SMILES
59 | 108 to 112 | O=C(O)C1Cc2ccccc2N1S(=O)(=O)c1ccc(-c2cccc(C(F)(F)F)c2)cc1 (centres undefined)
60 | 153 to 155 | CCCCc1nc2ccccc2c(=O)[nH]1
61 | 161 to 167 | COc1cccc(CCNC(=S)Nc2nc3ccccc3[nH]2)c1
62 | 211 to 212 | CCOCc1nc2c(N)nc3cc(OCc4ccccc4Cl)ccc3c2n1CC(C)C
63 | 170 to 172 | O=[N+]([O-])c1cnccc1Nn1ccc2ccccc21
64 | 162 | CCCCCNC(=O)N(C)c1cccc(-c2ccc(/C=C(\OCC)C(=O)O)cc2)n1
65 | 216 to 217 | C=CCn1c(C)nc2c3c(c(C(=O)OC)cc21)C(=O)CC1(Cc2ccccc2C1)N3
66 | 80 to 82 | COc1ccc(OC2COc3ccc(OCc4cc(OC)ccn4)cc3C2O)cc1 (centres undefined)
67 | 68 to 70 | Cc1cccc(C2OCC(OCc3ccccc3)CO2)c1 (centres undefined)
68 | 224 to 225 | COc1ccc(CCC(=O)NNC(=O)c2ccc3[nH]ncc3c2)cc1C(F)(F)F
69 | 84 | COc1ccc(-c2ccnc(-c3ccccc3)c2)cc1F
70 | 236 to 238 | COc1ccccc1-c1ccc(C#N)c(=O)[nH]1
71 | 119 to 120 | CCOC(=O)c1cccc(Cn2cnc3cnccc32)c1
72 | 153 to 155 | CC(C)(Cc1ccccc1)OC(=O)Nc1ccc(-c2ncn(-c3ccc(OC(F)(F)F)cc3)n2)cc1
73 | 109 to 110 | COc1cccc(C(=O)C(=NN)c2cccc(OC)c2)c1
74 | 215 to 218 | CCN1c2ncccc2C(=O)N(C)c2ccc(O)nc21
75 | 263 | CS(=O)(=O)c1ccc(-c2oc(C(=O)O)cc(=O)c2Oc2ccc(Cl)cc2)cc1
76 | 141 to 142 | Clc1cccc(CNc2ncc(Cc3ccncc3)c3ccccc23)c1
77 | 70 to 72 | O=C1NC(=O)C(c2ccc(OCCC3Oc4ccccc4N(Cc4cccc(Cl)c4)C3=O)cc2)S1 (centres undefined)
78 | 76 | CCN(CC)C(=O)c1cc2ccccc2c(-c2cccc(C(F)(F)F)c2)n1
79 | 139 to 142 | CSCCCn1cc(C(Cc2ccccc2Br)=NO)c2ccc(Cl)c(Cl)c21
80 | 108 to 109 | CCOC(=O)C(C)(C)Oc1ccc(CCCC(=O)NN(Cc2cc(F)cc(F)c2)C(N)=O)cc1
81 | 124 to 125 | COC(=O)C=C1c2ccccc2C=C(OC)c2sccc21

Row | melting point [°C] | SMILES
82 | 116 to 117 | Cc1oc(-c2ccccc2)nc1COc1ccc(/C=C/CO)cn1
83 | > 275 | O=S(=O)(O)c1cccc(NCc2ccc(Cl)c(Cl)c2)c1
84 | 153 to 154 | CCc1cc(Nc2ccc(N)cc2)n2nccc2n1
85 | 147 to 148 | O=C1C=C(OCc2ccccc2)CN1
86 | 124 | COc1ccc2ncn(C3CCN(C(C)c4ccccc4)CC3)c(=O)c2c1 (centres undefined)
87 | 195 to 197 | CC(C(O)c1ccc(OC(=O)c2ccc(CNC(C)(C)C)cc2)cc1)N1CCC(O)(c2ccccc2)CC1 (centres undefined)
88 | 86 to 87 | CCCc1c(OCCCOc2ccc(C(=O)C(=O)O)cc2)ccc(C(=O)OC)c1O
89 | 192 to 193 | CC(=O)NS(=O)(=O)c1ccc(-n2cc(C)cc2-c2ccc(C)c(C)c2)cc1
90 | 170 to 171 | COc1cc(F)cc(-c2ccc3c(c2)C(C)(C)OC(=S)N3)c1
91 | 185 to 187 | O=C(Nc1ccc(CN2C(=O)C3CCCC3N(C(=O)CN3C(=O)c4ccccc4C3=O)c3ccccc32)cc1)Oc1ccccc1 (centres undefined)
92 | 174 to 175 | OC(=S)c1ccc2cccnc2c1O
93 | 180 | O=C(Nc1ccc2ccc(Cl)nc2n1)c1ccccc1Cl
94 | 168 to 172 | N#CC1CN1C(=O)NC(=O)c1ccc(-c2ccccc2)cc1 (centres undefined)
95 | 203 to 204 | CC(C)CN1C(=O)c2cnc(-c3ccccc3)nc2Nc2ccccc21
96 | 123 to 125 | Nc1ccc2ccccc2c1[N+](=O)[O-]
97 | 84 to 86 | Cc1cccc(-c2nc(C(C)C)[nH]c2-c2cccc(-c3cnn(C)c3)c2)n1
98 | 149 to 151 | CCCCNC(=O)c1cc(=O)c(Oc2ccccc2)co1
99 | 116 to 118 | CC(C)=CCOc1ccc2c(=O)c3ccccc3oc2c1C(=O)C=Cc1ccccc1
100 | 109 to 124 | CCCNC(=O)C(C)Cc1ccc2c(c1)c(Cc1ccc(C(=O)NS(=O)(=O)c3ccccc3C)cc1OC)cn2CC(=O)N(C)C (centres undefined)
101 | 134 | CCOC(=O)CCCc1cn(C(c2ccccc2)(c2ccccc2)c2ccccc2)cn1
102 | 138 to 140 | Cc1c(SCCN2CCCCC2)ccnc1CSc1nc2ccccc2[nH]1
103 | 117 to 118 | Fc1ccc(-c2cc(NCc3cccc(NCc4ccccc4)n3)n[nH]2)cc1
104 | 267 to 269 | O=c1[nH]c2ncc(-c3ccncc3)nc2n1CC1CCCCC1
